How the values were obtained:
[1] = not marked (est); cited from earlier work
[2] = PTR-MS real-time headspace release, watermelon flavor model in water (Example 1); format: physicochemical; design: Sample A (PG) Mean / Sample B (1,3-propanediol) Mean: unit not given here; conditions: for Sample B (1,3-propanediol) Mean / Sample A (PG) Mean: PTR-MS headspace, diluted in water, 90 minutes equilibration, mean of three; for Sample B (1,3-propanediol) Mean: watermelon flavor concentrate in 1,3-propanediol; for Sample A (PG) Mean: watermelon flavor concentrate in propylene glycol; for Percent Release Difference: Sample B (1,3-propanediol) relative to Sample A (PG)
Procedure: The impact of 1,3-propanediol on the release of flavor compounds can be analyzed by Proton Transfer Reaction Mass Spectrometry (PTR-MS; model TOF-8000 from Ionicon Analytik Inc.), where real-time headspace release of volatiles is measured. A sampling apparatus is needed in conjunction with the PTR-MS inlet to prevent variations caused by headspace kinetics. By one exemplary approach, the sampling apparatus includes a 4 ounce sample vessel equipped with a 2-hole lid which may be sealed by an adhesive film to allow equilibration. […]. The holes are equal sized (˜2 mm diameter) and match the outer diameter of the PTR-MS inlet line. The flow of the dilution gas into the vessel is regulated by the vacuum and proportional valve of the PTR-MS inlet system. The sample vessel has a base diameter of 47 mm and is 45 mm high, of which 8 mm of height is occupied by the sample in the vessel in these experiments. The 2 holes in the lid are equidistant from the edge of the vessel (˜20 mm) and about 30 mm from each other. The PTR-MS inlet is braced by clamps in a fixed position vertically above the laboratory bench (˜55 mm) and a silicone rubber depth gauge is affixed to the PTR-MS inlet tubing and set at 18 mm. The PTR-MS inlet is thus consistently oriented in a vertical position 18 mm below the inside lid of the vessel and 19 mm above the sample in the vessel. The sample vessel is then held in place during sampling according to the depth gauge on the inlet line and the vessel is subsequently supported on the bench by a 10 mm plastic spacer.
15 grams of the sample to be tested (e.g., food or beverage product containing 1,3-propanediol) are added to the vessel. The vessel is sealed and allowed to equilibrate at room temperature (˜22° C.) for 90 minutes. At the time of sampling, the seal is removed from both the sampling hole and the dilution gas hole in the lid and the vessel is immediately affixed to the PTR-MS inlet via the sampling hole. The real-time released flavor is measured from the headspace of the sample vessel for two minutes (according to the conditions listed in Table 1 below). A comparative sample is prepared that is otherwise identical to the test sample but contains propylene glycol or water instead of 1,3-propanediol. The comparative sample is then analyzed in triplicate by PTR-MS using the above-described procedure. The data can be analyzed using PTR-MS Viewer, Version 3.0.0.101 (Ionicon Analytik G.m.b.H). The point of maximum intensity for each compound of interest can be determined and recorded according to the PTR-MS Viewer software. The maximum intensity in counts over the timescale for each compound of interest can be used for data analysis as it reflects the static equilibrium headspace concentration in the system at the moment of seal removal. Due to the necessity of a dilution gas, the volatile concentration decreases over time as the compounds of interest re-equilibrate to a state of dynamic equilibrium in the headspace.
[…]. Sample A was prepared with 20 grams watermelon flavor concentrate and 80 grams propylene glycol. Sample B was prepared with 20 grams watermelon flavor concentrate and 80 grams 1,3-propanediol. Each of the samples was further diluted by adding 0.08 grams of each diluted concentrate to 99.92 grams water to provide a flavor water solution.
The diluted samples were analyzed by Proton Transfer Reaction Mass Spectrometry (PTR-MS; model TOF-8000 from Ionicon Analytik Inc.) for real-time headspace release volatiles measurement. Samples were analyzed in triplicate. […]. […].

Compound | logP (o/w) [1] | Sample B (1,3-propanediol) Mean [2] | Sample A (PG) Mean [2] | Percent Release Difference [2] [%]
CC=O [Acetaldehyde] | −0.16 | 877 | 803.33 | 9.1
O=Cc1ccccc1 [Benzaldehyde] |  | 32.00 | 39.67 | −19.3
CCCC(=O)OCC [Ethyl butyrate] |  | 5827 | 10983 | −46.9
